The record followed here is ChEMBL document CHEMBL1142102, “Cytotoxic germacrane-type sesquiterpenes, pimarane-type diterpenes, and a naphthalene derivative from Wollastonia biflora” (J Nat Prod, 2007).

The assay can be described thus: Cytotoxicity against human BEL-7402 cells after 72 hrs by SRB assay. Format: cell-based. The note with it: Bel-7402, 72 h.

Usually IC50 stands for the midpoint of a concentration-inhibition curve. A lower IC50 goes with inhibition by little substance. As for `C=C(C)C(=O)O[C@@H]1C[C@H](CO)CC/C=C(/C=O)C[C@H]2OC(=O)C(=C)[C@H]12`, the IC50 is 1500 nM. The compound `C=C1C(=O)O[C@@H]2C/C(CO)=C\CC[C@@H](CO)C[C@@H](OC(=O)/C(C)=C\C)[C@@H]12` showed an IC50 of 3000 nM. Take `C=C(C)C(=O)O[C@@H]1C[C@H](CO)CC/C=C(/CO)C[C@H]2OC(=O)C(=C)[C@H]12`: the IC50 came to 1720 nM.
